Data reported in patent publication EP0628551A1, “Semicyclic urea derivatives as antihistaminic agents” (SHIONOGI & CO., LTD., priority 1993, dated 1994).
Values after ≈ are worked out from the molar mass of the structure shown.

What was measured:
H₁ receptor = target: T1, H₁ receptor (Mus musculus, UniProt P70174); assay: H1 receptor binding inhibition test ex vivo (migration to the brain, [3H]-pyrilamine binding to cerebral cortex after oral dosing); type: in vivo; conditions: Slc-ddY male mice, 10 mg/kg orally, cerebral cortex removed 60 minutes after administration, [³H]-pyrilamine 4 nM, lower inhibition = lower migration to brain, read-out: [³H]-labeled pyrilamine binding inhibition ex vivo
T1 construct: A cerebral cortex of a mouse orally administered with Compound I of the present invention is homogenized to prepare a receptor sample; from tissue; host or cells: mouse (Slc-ddY, male) cerebral cortex homogenate after oral dosing
Description: The receptor sample is incubated with [³H]-pyrilamine.
Five Slc-ddY male mice were used as one group. First, 10 mg/kg of the compound of the present invention was orally administered to each mouse. The mouse were killed by decapitation 60 minutes after the administration and each cerebral cortex was removed. Each cerebral cortex was frozen on dry ice and kept in a refrigerator at -80°C. Before the experiment, each cerebral cortex was homogenized with about 10 times its volume of 50 mM of Na/K phosphate buffer (pH 7.5). A mixture of each cerebral cortex was further diluted 6 times and used as a receptor sample. A mixture of each receptor sample and [³H]-pyrilamine (4 nM) was incubated at 25°C for 30 minutes. The reaction was stopped by dilution and filtration. The radioactivity of [³H]-pyrilamine bound to the receptor sample on the filter paper was measured by a liquid scintillation counter. The specific binding of [³H]-pyrilamine to the receptor sample was obtained by subtracting the non-specific binding from the total bindings. The non-specific binding was obtained under the conditions of containing 10 µM of non-radioactive pyrilamine. The amount of protein was measured by DC protein assay (Biolad), and the inhibition of the compound of the present invention to the specific binding of [³H]-pyrilamine per 1 mg of protein was measured. […]

ileum of a guinea pig = assay: Evaluation of antihistaminic effects in vitro (inhibition of histamine-induced contraction of isolated ileum, Magnus method); type: cell-based; conditions: Cavia porcellus; guinea pig ileum in saline solution at 37°C; histamine diphosphate 0.5 µg/ml; subject compound 0.03 to 10 µg/ml; 50% inhibition of submaximal contraction; read-out: Antihistaminic effect IC50
Description: The effects of Compound I of the present invention and salts thereof as an antiallergic agents can be evaluated by various methods for measuring antiallergic activity, for example by conducting the following tests (1) and (2). • (1) Antihistaminic effect evaluation test in vitro Histamine diphosphate and Compound I of the present invention or salts thereof are added to an ileum of a guinea pig in a saline solution. The concentration (at which the contraction of the ileum by histamine is inhibited by 50%) of Compound I of the present invention is measured. • (2) Histamine₁ receptor (H₁ receptor) in vitro binding inhibition test As a standard material which binds to a H₁ receptor, pyrilamine is used. Compound I of the present invention is added with varying concentrations to a mixture containing a receptor sample prepared by homogenizing a cerebral cortex of a rat and [³H]-pyrilamine, and incubated. From radioactivity of [³H]-pyrilamine which is bound to the receptor sample, the concentration (IC₅₀) of Compound I inhibiting the specific binding of [³H]-pyrilamine to the receptor sample is measured to obtain an inhibition constant (Ki). Compound I of the present invention has a lower degree of migration to brain. Thus, Compound I has less side effects on the central nervous system such as sleepiness, because of its less frequent binding to the H₁ recepter in brain. The extent of migration of Compound I or salts thereof to the brain can be obtained by the following test method 3. • (3) H₁ receptor binding inhibition test ex vivo A cerebral cortex of a mouse orally administered with Compound I of the present invention is homogenized to prepare a receptor sample. The receptor sample is incubated with [³H]-pyrilamine. From the radioactivity of [³H]-pyrilamine bound to the receptor sample, the inhibition of Compound I with respect to the specific biding of pyrilamine to the receptor sample is obtained.
The following experiments were conducted in accordance with the method of R. Magnus (Arch. F.D. Ges. Physiol., 102: 123-151, 1904). Ileums derived from guinea pigs were respectively soaked in a saline solution at 37°C. Then, histamine diphosphate and a subject compound which had been obtained in the Examples shown in Table 1 were added to each saline solution so that the concentrations of histamine diphosphate and the subject compound are 0.5 µg/ml and 0.03 to 10 µg/ml, respectively. The ileum generally contracts by histamine; however, in the case where the subject compound is present, the antagonistic effect of the subject compound on histamine inhibits the contraction of the ileum. The contraction degree of the ileum was measured at each concentration of the added subject compound, and the concentration IC₅₀ of the subject compound which inhibited 50% submaximal contraction of the ileum by histamine was obtained. The submaximal contraction was obtained in the case where the subject compound was not added. […] When the value of IC₅₀ is lower, the subject cmpound has stronger antihistaminic effects.

T1 sequence (P70174 whole entry): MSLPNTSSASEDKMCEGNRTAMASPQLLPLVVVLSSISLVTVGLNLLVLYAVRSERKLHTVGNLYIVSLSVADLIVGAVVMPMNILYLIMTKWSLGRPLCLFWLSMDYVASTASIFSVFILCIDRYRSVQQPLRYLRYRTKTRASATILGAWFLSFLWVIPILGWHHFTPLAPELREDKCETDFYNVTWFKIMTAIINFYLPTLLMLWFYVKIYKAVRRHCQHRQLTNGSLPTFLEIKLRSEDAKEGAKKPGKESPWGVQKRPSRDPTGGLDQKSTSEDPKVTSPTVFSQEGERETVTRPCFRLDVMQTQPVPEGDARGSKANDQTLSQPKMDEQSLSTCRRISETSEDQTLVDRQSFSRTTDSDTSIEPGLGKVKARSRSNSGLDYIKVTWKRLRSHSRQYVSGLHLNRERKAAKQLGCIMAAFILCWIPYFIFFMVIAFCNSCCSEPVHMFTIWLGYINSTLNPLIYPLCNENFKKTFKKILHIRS

inhibition at 10 mg/kg (H₁ receptor) [%] | IC50 (ileum of a guinea pig) [µg/mL] | SMILES
0 | 0.442 (≈ 0.89 µM) | O=C(NCCCN1CCC(=C(c2ccccc2)c2ccccc2)CC1)N1CCN(c2ncccn2)CC1 [Example 5]
4 | 0.119 (≈ 0.246 µM) | O=C(NCCN1CCN(C(c2ccccc2)c2ccccc2)CC1)N1CCN(c2ccccn2)CC1 [Example 39]
14 | 0.216 (≈ 0.404 µM) | O=C(NCCCN1CCN(C(c2ccc(F)cc2)c2ccc(F)cc2)CC1)N1CCN(c2ccccn2)CC1 [Example 43]
6 | 0.621 (≈ 1.03 µM) | O=C(NCCCN1CCC(OC(c2ccccc2)c2ccccc2)CC1)N1CCN(C(c2ccccc2)c2ccccc2)CC1 [Example 45]
9 | 0.0244 (≈ 0.0484 µM) | O=C1CSCCN1C(=O)NCCCN1CCC(OC(c2ccc(F)cc2)c2ccc(F)cc2)CC1 [Example 49]
2 | 0.0817 (≈ 0.149 µM) | O=C(NCCCN1CCC(OC(c2ccc(F)cc2)c2ccc(F)cc2)CC1)N1CCN(c2ccccn2)CC1 [Example 50]
0 | 1.76 (≈ 3.66 µM) | O=C(NCCN1CCC(=C(c2ccccc2)c2ccccc2)CC1)N1CCN(c2ccccn2)CC1 [Example 53]
0 | 1.38 (≈ 2.26 µM) | O=C(NCCCN1CCC(=C(c2ccccc2)c2ccccc2)CC1)N1CCN(S(=O)(=O)c2cccc3cccnc23)CC1 [Example 56]
7 | 1.12 (≈ 2.16 µM) | CC(C)(C)OC(=O)N1CCN(C(=O)NCCCN2CCC(=C(c3ccccc3)c3ccccc3)CC2)CC1 [Example 71]
17 | 1 (≈ 2.34 µM) | O=c1[nH]c2ccccc2n1CCCN1CCN(C(c2ccccc2)c2ccccc2)CC1 [Oxatoamide, reference compound]
 | 22.4 (≈ 47.4 µM) | CC(C)(C)c1ccc(C(O)CCCN2CCC(C(O)(c3ccccc3)c3ccccc3)CC2)cc1 (stereo not drawn) [Terfenadine, reference compound]

SMILES | inhibition at 10 mg/kg (H₁ receptor) [%] | IC50 (ileum of a guinea pig) [µg/mL]
O=C(NCCCN1CCC(OC(c2ccccc2)c2ccccc2)CC1)N1CCN(c2ncccn2)CC1 [Example 15] | 6 | 0.0595 (≈ 0.116 µM)
CCOC(=O)N1CCN(C(=O)NCCCN2CCC(OC(c3ccc(F)cc3)c3ccc(F)cc3)CC2)CC1 [Example 51] | 0 | 0.427 (≈ 0.784 µM)
O=C(NCCCN1CCC(OC(c2ccccc2)c2ccccc2)CC1)N1CCN(S(=O)(=O)c2cccc3cccnc23)CC1 [Example 55] | 0 | 1.14 (≈ 1.82 µM)
O=C(NCCCN1CCC(OC(c2ccccc2)c2ccccc2)CC1)N1CCN(S(=O)(=O)c2cccnc2)CC1 [Example 61] | 6 | 0.196 (≈ 0.339 µM)
CC(C)(C)OC(=O)N1CCN(C(=O)NCCCN2CCC(OC(c3ccccc3)c3ccccc3)CC2)CC1 [Example 70] | 2 | 0.0889 (≈ 0.166 µM)
O=C1CCCN1C(=O)NCCCCCN1CCN(C(c2ccccc2)c2ccccc2)CC1 [Example 79] | 5 | 0.042 (≈ 0.0936 µM)
